How the values were obtained:
[1] = molecular target: T1, Cannabinoid receptor 2 (Homo sapiens, UniProt P34972); test: Agonist activity at human CB2 receptor expressed in yeast cells; format: functional, cell-based
[2] = molecular target: T1, Cannabinoid receptor 2; test: Agonist activity at human CB2 receptor expressed in yeast cells relative to HU210; format: functional, cell-based
[3] = molecular target: T2, Cannabinoid receptor 1 (Homo sapiens, UniProt P21554); test: Agonist activity at human CB1 receptor expressed in yeast cells relative to HU210; format: functional, cell-based
T2 sequence (P21554 whole entry): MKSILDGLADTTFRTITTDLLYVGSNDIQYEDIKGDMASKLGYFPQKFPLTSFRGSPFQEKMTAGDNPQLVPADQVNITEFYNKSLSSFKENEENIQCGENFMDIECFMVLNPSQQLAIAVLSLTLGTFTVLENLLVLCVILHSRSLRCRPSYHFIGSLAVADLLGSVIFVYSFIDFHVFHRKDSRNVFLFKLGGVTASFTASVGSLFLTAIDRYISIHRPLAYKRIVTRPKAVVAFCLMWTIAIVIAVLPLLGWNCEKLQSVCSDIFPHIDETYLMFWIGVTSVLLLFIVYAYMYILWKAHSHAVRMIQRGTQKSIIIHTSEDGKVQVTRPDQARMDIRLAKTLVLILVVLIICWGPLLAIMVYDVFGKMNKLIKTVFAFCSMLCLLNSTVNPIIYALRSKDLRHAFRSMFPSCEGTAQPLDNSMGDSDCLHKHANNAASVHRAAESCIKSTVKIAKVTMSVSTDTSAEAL

[4] = tested on: Liver microsomes; test: Clearance in rat liver microsomes; format: ADME, Microsome
[5] = molecular target: T2, Cannabinoid receptor 1; test: Agonist activity at human CB1 receptor expressed in yeast cells; format: functional, cell-based

T1 sequence (P34972 whole entry): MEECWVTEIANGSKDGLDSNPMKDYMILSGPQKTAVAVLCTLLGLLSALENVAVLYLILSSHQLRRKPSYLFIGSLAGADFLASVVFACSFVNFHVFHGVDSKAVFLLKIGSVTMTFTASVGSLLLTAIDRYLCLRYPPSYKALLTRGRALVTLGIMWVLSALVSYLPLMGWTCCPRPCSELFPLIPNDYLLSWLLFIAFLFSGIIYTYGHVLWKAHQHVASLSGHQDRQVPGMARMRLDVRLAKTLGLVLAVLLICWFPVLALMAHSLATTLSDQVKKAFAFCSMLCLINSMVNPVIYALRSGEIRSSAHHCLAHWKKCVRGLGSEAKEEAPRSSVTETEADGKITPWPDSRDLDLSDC

Row | SMILES | EC50 [1] [nM] | Efficacy [2] [%] | Efficacy [3] [%] | CL [4] [mL/min/g] | EC50 [5] [µM]
1 | Cc1cccnc1-c1ccc(N2CCCCCC2)nc1 | 794 | 86 | – | – | –
2 | N#Cc1cc(N2CCCCCC2)ncc1-c1cccc(Cl)c1Cl | 100 | 86 | 13 | > 50 | 10
3 | Clc1cccc(-c2ccc(N3CCCCCC3)nc2)c1Cl | 39.8 | 104 | 4 | 30 | 10
4 | FC(F)(F)c1cc(N2CCCCCC2)ncc1-c1cccc(Cl)c1Cl | 2510 | 79 | – | – | > 31.6
5 | Cc1ccc(N)c(-c2ccc(N3CCCCCC3)nc2)n1 | 126 | 86 | – | – | –
6 | C[C@@H]1CC[C@H](C)N1c1ccc(-c2cccc(Cl)c2Cl)cn1 | 251 | 37 | – | 11 | –
7 | Clc1ccc(Cl)c(-c2ccc(N3CCOCC3)nc2)c1 | 631 | 25 | – | – | –
8 | Clc1ccc(-c2ccc(N3CCOCC3)nc2)cc1Cl | 3980 | 11 | – | – | –
9 | Fc1ccc(-c2ccc(N3CCOCC3)nc2)c(F)c1 | > 31600 | – | – | – | –
10 | c1cc2occc2c(-c2ccc(N3CCCCCC3)nc2)n1 | 63.1 | 80 | – | > 50 | –
11 | N#Cc1cccnc1-c1ccc(N2CCCCCC2)nc1 | 398 | 75 | – | – | –
12 | Cc1cnc(-c2ccc(N3CCCCCC3)nc2)c(C)c1 | 1260 | 102 | – | – | –
13 | Clc1cccc(-c2ccc(N3CCOCC3)nc2)c1Cl | 79.4 | 88 | – | 9.5 | –
14 | O=C(c1cc(-c2cccc(Cl)c2Cl)cnc1N1CCCCCC1)N1CCOCC1 | 79.4 | 67 | 0.19 | > 50 | 10
15 | Fc1cccc(-c2ccc(N3CCOCC3)nc2)c1F | 251 | 58 | – | – | –
16 | CCCCNc1ccc(-c2cccc(Cl)c2Cl)cn1 | 79.4 | 88 | – | – | –
17 | Nc1cccnc1-c1ccc(N2CCCCCC2)nc1 | 1000 | 91 | – | – | –

Row | SMILES | EC50 [1] [nM] | Efficacy [2] [%] | Efficacy [3] [%] | CL [4] [mL/min/g] | EC50 [5] [µM]
18 | Clc1cccc(-c2ccc(N3CCCOCC3)nc2)c1Cl | 63.1 | 87 | – | 27 | –
19 | O=C(O)c1cc(-c2cccc(Cl)c2Cl)cnc1N1CCCCCC1 | 1580 | 41 | – | – | > 31.6
20 | Clc1cccc(-c2ccc(N3CCSCC3)nc2)c1Cl | 158 | 93 | – | – | –
21 | O=C1CCC(=O)N1c1ccc(-c2cccc(Cl)c2Cl)cn1 | 3980 | 19 | – | – | –
22 | Clc1cnc(-c2ccc(N3CCCCCC3)nc2)c(Cl)c1 | 316 | 100 | – | – | –
23 | CC1CC(C)CN(c2ccc(-c3cccc(Cl)c3Cl)cn2)C1 (stereo not given) | 501 | 73 | – | – | –
24 | Clc1cccc(-c2ccc(N3CCOCC3)nc2)c1 | 1000 | 20 | – | – | –
25 | Clc1ccc(-c2ccc(N3CCCCCC3)nc2)nc1 | 100 | 101 | – | 13 | –
26 | CN(C)C(=O)c1cc(-c2cccc(Cl)c2Cl)cnc1N1CCCCCC1 | 794 | 37 | – | – | > 31.6
27 | Clc1ccccc1-c1ccc(N2CCOCC2)nc1 | 398 | 43 | – | – | –
28 | Cc1c(Cl)cccc1-c1ccc(N2CCOCC2)nc1 | 501 | 73 | – | – | –
29 | c1ccc(-c2ccc(N3CCCCCC3)nc2)nc1 | 10000 | 29 | – | – | –
30 | Clc1ccc(-c2ccc(N3CCOCC3)nc2)c(Cl)c1 | > 31600 | – | – | – | –
31 | O=C1CCCN1c1ccc(-c2cccc(Cl)c2Cl)cn1 | 251 | 59 | – | – | –
32 | N#Cc1cc(-c2cccc(Cl)c2Cl)cnc1N1CCCCCC1 | 3980 | 41 | – | – | > 31.6
33 | FC(F)(F)c1cc(-c2cccc(Cl)c2Cl)cnc1N1CCCCCC1 | 6310 | 12 | – | – | > 31.6
34 | Clc1cccnc1-c1ccc(N2CCCCCC2)nc1 | 501 | 103 | – | – | –
